# According to paper PMC7586456 (ACS Pharmacology & Translational Science, 2020):
# Tested on: SARS CoV-2 (USA_WA1/2020)
row,Structure (SMILES),rescue of SARS-CoV-2 CPE (in words)
1,CCN1CCN(Cc2ccc(Nc3ncc(F)c(-c4cc(F)c5nc(C)n(C(C)C)c5c4)n3)nc2)CC1 [abemaciclib],"protected against SARS-CoV-2 induced CPE, but to lesser degrees than cepharanthine"
2,C=CC(=O)Nc1cc(Nc2nccc(-c3cn(C)c4ccccc34)n2)c(OC)cc1N(C)CCN(C)C [osimertinib],"protected against SARS-CoV-2 induced CPE, but to lesser degrees than cepharanthine"
3,CC(CN(C)C)CN1c2ccccc2CCc2ccccc21 (stereo not shown) [trimipramine],"protected against SARS-CoV-2 induced CPE, but to lesser degrees than cepharanthine"
4,CC1=C[C@]23C(=O)[C@@H](C=C(CO)[C@@H](O)[C@]2(O)[C@H]1O)[C@H]1[C@@H](C[C@H]3C)C1(C)C [ingenol],"protected against SARS-CoV-2 induced CPE, but to lesser degrees than cepharanthine"
